Laboratory results as given in patent US20240415819A1, “MACROCYCLIC COMPOUNDS AS PROTEASOME SUBUNIT BETA TYPE-5 INHIBITORS” (Lead Discovery Center GmbH, priority 2021, published 2024).
Where two headings read alike, the source gives them in different places.

Experiments:
[1] = target: T1, β5 subunit of the human constitutive proteasome (CPS) (Homo sapiens, UniProt P28074); assay: β5 inhibition assay, human constitutive proteasome (Suc-LLVY-AMC); format: biochemical; conditions: IC50 class, Suc-LLVY-AMC substrate
T1 construct: purchased Boston Biochem E-360
Protocol: The enzymatic activity of the β5 subunit of the human constitutive proteasome (CPS) is analyzed. In another assay, which differs from the assay of the human constitutive proteasome only in using the human immunoproteasome (IPS) the enzymatic activity of the β5 subunit of the human immunoproteasome (IPS) is analyzed. […] Inhibition is indicated as IC50 [nM] (“-”=not measured).

[2] = target: T2, β5 subunit of the human immunoproteasome (IPS) (Homo sapiens, UniProt P28062); assay: β5 inhibition assay, human immunoproteasome (Suc-LLVY-AMC); format: biochemical; conditions: IC50 class, Suc-LLVY-AMC substrate
T2 construct: purchased Boston Biochem E-370
In short: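 β5 activity is read as liberated AMC fluorescence (355/460 nm) after 4 h dark reaction at RT with 22.6 μM Suc-LLVY-AMC, stopped by 1 μM bortezomib. Beforehand, 1 nM human IPS and compound sat 10 min at RT in HEPES pH 7.5 buffer containing NaCl, 0.02% SDS and DTT.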

HT-29 cells = assay: CellTiter-Glo luminescent cell viability assay with HT-29 cells (72h incubation); format: cell-based, human; conditions: read-out: CTG HT29
In short: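 Viability read as CellTiter-Glo luminescence after 72 h compound exposure, with 10 μM staurosporine and DMSO as control wells. Seeding 400 cells per well, compound added 24 h post-plating; IC50 from curve fitting.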

[3] = Homo sapiens, HT-29, HT29 cells

| Compound | IC50 [1] [µM] | IC50 [2] [µM] | IC50 (HT-29 cells; [3]) [µM] | IC50 (HT-29 cells; HT29 cells) [µM] |
| --- | --- | --- | --- | --- |
| Cc1ccc2cc1CNC(=O)[C@H](CCc1ccccc1)NC(=O)[C@@H](NC(=O)OCc1ccccc1)CC(=O)N1CC(CCO2)CC2CCCCC21 (stereo partly drawn) [Compound 314, benzyl ((9S,12S)-5^4-methyl-8,11,14-trioxo-9-phenethyl-11,12,13,14,14a,15,16,17,18,18a-decahydro-4-oxa-7,10-diaza-1(3,1)-quinolina-5(1,3)-benzenacyclotetradecaphane-12-yl)carbamate] | < 0.1 | < 0.1 | < 0.1 | – |
| CCOC(=O)N[C@H]1CC(=O)N2CCCC(CCOc3ccc(C)c(c3)CNC(=O)C(c3cnn(C)c3)NC1=O)C2 (stereo partly drawn) [Compound 363, Ethyl ((12S)-5^4-methyl-9-(1-methyl-1H-pyrazol-4-yl)-8,11,14-trioxo-4-oxa-7,10-diaza-1(3,1)-piperidina-5(1,3)-benzenacyclotetradecaphane-12-yl)carbamate] | < 0.1 | < 0.1 | < 0.1 | – |
| CCOC(C(=O)N[C@H]1CC(=O)N2CCCC(CCOc3ccc(C)c(c3)CNC(=O)[C@H](CCc3ccccc3)NC1=O)C2)c1ccc(N)cc1 (stereo partly drawn) [Compound 345, 2-(4-aminophenyl)-2-ethoxy-N-((9S,12S)-5^4-methyl-8,11,14-trioxo-9-phenethyl-4-oxa-7,10-diaza-1(3,1)-piperidina-5(1,3)-benzenacyclotetradecaphane-12-yl)acetamide] | < 0.1 | < 0.1 | < 0.1 | – |
| CC(=O)N[C@H]1CC(=O)N2CCCC(CCOc3ccc(C)c(c3)CNC(=O)C(c3cnn(CCC(=O)O)c3)NC1=O)C2 (stereo partly drawn) [Compound 567, 3-(4-((12S)-12-acetamido-5^4-methyl-8,11,14-trioxo-4-oxa-7,10-diaza-1(3,1)-piperidina-5(1,3)-benzenacyclotetradecaphane-9-yl)-1H-pyrazol-1-yl)propanoic acid] | < 0.1 | < 0.1 | 0.1 to 0.5 | – |
| Cc1ccc2cc1CNC(=O)[C@H](CCc1ccccc1)NC(=O)[C@@H](NC(=O)C(C)c1ccc(N)cc1)CC(=O)N1CCCC(CCO2)C1 (stereo partly drawn) [Compound 309, 2-(4-aminophenyl)-N-((9S,12S)-5^4-methyl-8,11,14-trioxo-9-phenethyl-4-oxa-7,10-diaza-1(3,1)-piperidina-5(1,3)-benzenacyclotetradecaphane-12-yl)propanamide] | < 0.1 | < 0.1 | < 0.1 | – |
| Cc1ccc2cc1CNC(=O)[C@H](CCc1ccccc1)NC(=O)[C@@H](NC(=O)CC(C)(C)C)CC(=O)N1CCCC(CCO2)C1 (stereo partly drawn) [Compound 28, 3,3-dimethyl-N-((9S,12S)-5^4-methyl-8,11,14-trioxo-9-phenethyl-4-oxa-7,10-diaza-1(3,1)-piperidina-5(1,3)-benzenacyclotetradecaphane-12-yl)butanamide] | < 0.1 | < 0.1 | < 0.1 | – |
| Cc1ccc2cc1CNC(=O)C(c1cnn(C)c1)NC(=O)[C@@H](NC(=O)[C@@H](C)c1ccccc1)CC(=O)N1CCCC(CCO2)C1 (stereo partly drawn) [Compound 359, (2S)-N-((12S)-5^4-methyl-9-(1-methyl-1H-pyrazol-4-yl)-8,11,14-trioxo-4-oxa-7,10-diaza-1(3,1)-piperidina-5(1,3)-benzenacyclotetradecaphane-12-yl)-2-phenylpropanamide] | < 0.1 | < 0.1 | < 0.1 | – |
| Cc1ccc2cc1CNC(=O)C(CCc1cnc3nccnc3c1)NC(=O)[C@@H](NC(=O)OCc1ccccc1)CC(=O)N1CCCC(CCO2)C1 (stereo partly drawn) [Compound 505, benzyl ((12S)-5^4-methyl-8,11,14-trioxo-9-(2-(pyrido[2,3-b]pyrazin-7-yl)ethyl)-4-oxa-7,10-diaza-1(3,1)-piperidina-5(1,3)-benzenacyclotetradecaphane-12-yl)carbamate] | < 0.1 | < 0.1 | < 0.1 | – |
| Cc1nc(C2NC(=O)[C@@H](NC(=O)OCc3ccccc3)CC(=O)N3CCCC(CCOc4ccc(C)c(c4)CNC2=O)C3)co1 (stereo partly drawn) [Compound 512, benzyl ((12S)-5^4-methyl-9-(2-methyloxazol-4-yl)-8,11,14-trioxo-4-oxa-7,10-diaza-1(3,1)-piperidina-5(1,3)-benzenacyclotetradecaphane-12-yl)carbamate] | < 0.1 | < 0.1 | < 0.1 | – |
| Cc1ccc2cc1CNC(=O)[C@H](CCc1ccccc1)NC(=O)[C@@H](NC(=O)OCc1ccccc1)CCC(=O)N1CCCC3(CC(C3)O2)C1 [Compound 301, benzyl ((7S,10S)-3^4-methyl-6,9,13-trioxo-7-phenethyl-2-oxa-5,8-diaza-14(3,1)-piperidina-3(1,3)-benzena-1(1,3)-cyclobutanatetradecaphane-10-yl)carbamate] | 1 to 5 | 0.5 to 1 | 0.1 to 0.5 | – |
| COc1cccc(CC(=O)N[C@H]2CC(=O)N3CCCC(CCOc4ccc(C)c(c4)CNC(=O)C(c4cnn(C)c4)NC2=O)C3)c1 (stereo partly drawn) [Compound 362, 2-(3-methoxyphenyl)-N-((12S)-5^4-methyl-9-(1-methyl-1H-pyrazol-4-yl)-8,11,14-trioxo-4-oxa-7,10-diaza-1(3,1)-piperidina-5(1,3)-benzenacyclotetradecaphane-12-yl)acetamide] | < 0.1 | < 0.1 | < 0.1 | – |
| Cc1ccc2cc1CNC(=O)C(CCc1ccncc1)NC(=O)[C@@H](NC(=O)Cc1ccc(N)cc1F)CC(=O)N1CCCC(CCO2)C1 (stereo partly drawn) [Compound 344, 2-(4-amino-2-fluorophenyl)-N-((12S)-5^4-methyl-8,11,14-trioxo-9-(2-(pyridin-4-yl)ethyl)-4-oxa-7,10-diaza-1(3,1)-piperidina-5(1,3)-benzenacyclotetradecaphane-12-yl)acetamide] | < 0.1 | < 0.1 | < 0.1 | – |
| Cc1ccc2cc1CNC(=O)C(CCc1ccc(S(=O)(=O)O)cc1)NC(=O)[C@@H](NC(=O)OCc1ccccc1)CC(=O)N1CCCC(CCO2)C1 (stereo partly drawn) [Compound 509, 4-(2-((12S)-12-(((benzyloxy)carbonyl)amino)-5^4-methyl-8,11,14-trioxo-4-oxa-7,10-diaza-1(3,1)-piperidina-5(1,3)-benzenacyclotetradecaphane-9-yl)ethyl)benzenesulfonic acid] | < 0.1 | < 0.1 | 0.1 to 0.5 | – |
| Cc1ccc2cc1CNC(=O)[C@H](CCc1ccccc1)NC(=O)[C@@H](NC(=O)OCc1ccccc1)CCCC(=O)NCCCCO2 [Compound 322, benzyl ((12S,15S)-1^4-methyl-8,13, 16-trioxo-15-phenethyl-2-oxa-7,14,17-triaza-1(1,3)-benzenacyclooctadecaphane-12-yl)carbamate] | < 0.1 | < 0.1 | 0.1 to 0.5 | – |

Second part, the compound after the results:

| IC50 [1] [µM] | IC50 [2] [µM] | IC50 (HT-29 cells; [3]) [µM] | IC50 (HT-29 cells; HT29 cells) [µM] | Compound |
| --- | --- | --- | --- | --- |
| < 0.1 | < 0.1 | < 0.1 | – | Cc1ccc2cc1CNC(=O)[C@H](CCc1ccccc1)NC(=O)[C@@H](NC(=O)Cc1csc(N)n1)CC(=O)N1CCCC(CCO2)C1 (stereo partly drawn) [Compound 302, 2-(2-aminothiazol-4-yl)-N-((9S,12S)-5^4-methyl-8,11,14-trioxo-9-phenethyl-4-oxa-7,10-diaza-1(3,1)-piperidina-5(1,3)-benzenacyclotetradecaphane-12-yl)acetamide] |
| < 0.1 | < 0.1 | – | < 0.1 | Cc1ccc2cc1CNC(=O)C(CCc1ccccc1)NC(=O)C(NC(=O)CCc1ccccc1)CC(=O)N1CCCC(CCO2)C1 [Compound 30, N-((9S,12S)-5^4-methyl-8,11,14-trioxo-9-phenethyl-4-oxa-7,10-diaza-1(3,1)-piperidina-5(1,3)-benzenacyclotetradecaphane-12-yl)-3-phenylpropanamide] |
| < 0.1 | < 0.1 | < 0.1 | – | CC(=O)N[C@H]1CC(=O)N2CCCC(CCOc3cccc(c3)CNC(=O)[C@H](CCc3ccccc3)NC1=O)C2 (stereo partly drawn) [Compound 364, N-((9S,12S)-8,11,14-trioxo-9-phenethyl-4-oxa-7,10-diaza-1(3,1)-piperidina-5(1,3)-benzenacyclotetradecaphane-12-yl)acetamide] |
| < 0.1 | < 0.1 | < 0.1 | – | Cc1ccc2cc1CNC(=O)[C@H](CCc1ccccc1)NC(=O)[C@@H](NC(=O)OCc1ccccc1)CCCC(=O)N1CCC(CCO2)C1 (stereo partly drawn) [Compound 352, benzyl ((9S, 12S)-5^4-methyl-8,11,16-trioxo-9-phenethyl-4-oxa-7,10-diaza-1(3,1)-pyrrolidina-5(1,3)-benzenacyclohexadecaphane-12-yl)carbamate] |
| < 0.1 | < 0.1 | < 0.1 | – | Cc1ccc2cc1CNC(=O)[C@H](CCc1ccccc1)NC(=O)[C@@H](NC(=O)OCc1ccccc1)CCCCC(=O)NCCCCO2 [Compound 347, benzyl ((13S,16S)-1^4-methyl-8,14,17-trioxo-16-phenethyl-2-oxa-7,15,18-triaza-1(1,3)-benzenacyclononadecaphane-13-yl)carbamate] |
| < 0.1 | < 0.1 | < 0.1 | – | Cc1ccc2cc1CNC(=O)C(CCc1cnccn1)NC(=O)[C@@H](NC(=O)C1(c3ccc(N)cc3)CC1)CC(=O)N1CCCC(CCO2)C1 (stereo partly drawn) [Compound 371, 1-(4-aminophenyl)-N-((9S,12S)-5^4-methyl-8,11,14-trioxo-9-(2-(pyrazin-2-yl)ethyl)-4-oxa-7,10-diaza-1(3,1)-piperidina-5(1,3)-benzenacyclotetradecaphane-12-yl)cyclopropane-1-carboxamide] |
